The values below come from patent US6040331A, “Nerve cell protective agents” (Mochida Pharmaceutical Co., Ltd., priority 1996, dated 2000).

The IC50 is the concentration needed to halve the response being measured.

Values after ≈ are worked out from the molar mass of the structure shown. Structures can show the parent of a compound that is named as a salt. *1 amine or outer side, *2 acyl side, *3 side chain or, on linkers, in order; H or OH if unused. Where a SMILES comes first, the peptide text is derived from it. Bridges are numbered along the chain shown (N, C = ends). Roman numbers before positions name the chains, in order. [ ]: non-standard residue; d: D form. Actinocin(9to1) = Cc1c2oc3c(C)ccc(C(=O)[*:1])c3nc-2c(C(=O)[*:2])c(N)c1=O; NMeV = CN[C@H](C(=O)O)C(C)C; Sar = CNCC(=O)O

For one test, the system named is neurons isolated from the cerebrum. Nature of the test: Naturally occurring neuronal death suppressing action (serum-free cultivation, Crystal Violet). It counts as cell-based, embryonic day 16 rats. The note with it: Rattus norvegicus, Neuron, 72 h; 0.3 μg/ml; serum-free, 3 days; read-out: Suppression of Naturally Occurring Neuronal Death. The protocol:
The action of compounds to suppress the naturally occurring death of neurons was evaluated in terms of their effectiveness in suppressing or inhibiting the naturally occurring death of neurons as induced by exposing cultured neurons to serum-free cultivation conditions. An experiment was run by a method adapted from the method of Shimojo et al., Neurosci. Lett., 151, 170, 1993. Specifically, neurons were isolated from the cerebrum of embryonic day 16 rats in the usual manner, suspended in a DMEM/F12 medium containing 1% fetal bovine serum, seeded onto a polylysine-coated culture plate at a density of 5×10^4 cells per square centimeter and cultivated at 37° C. in 95% air+5% CO2. After one day of culture, the medium was replaced with a serum-free medium containing a compound to be tested and the cultivation was continued for 3 more days. Subsequently, the cells were fixed with 1% glutaraldehyde and their number was determined by calorimetric quantification using Crystal Violet (Anal. Biochem., 182, 16-19, 1989). The percent suppression of neuronal death by the test compound was determined by the following formula:
(§1) 100×(ODtest-ODcontrol)/(ODnormal-ODcontrol) (%)
where ODtest is the number of cells (absorbance) in the group of addition of test compound after serum removal, ODcontrol is the number of cells (absorbance) in a control group after serum removal, and ODnormal is the number of cells (absorbance) in a control (normal) group without serum removal.
Turning to `NC1CCc2c(-c3ccc(Cl)cc3)[nH]c3c(Cl)ccc1c23` (stereo not shown) [Example 103, 5-amino-8-chloro-2-(4-chlorophenyl)-1,3,4,5-tetrahydrobenz[cd]indole], the inhibition at 0.3 µg/mL came to 56%.

As to `NC1CCc2c(-c3ccccc3)[nH]c3ccc(O)c1c23` (stereo not shown) [Example 174, 5-amino-6-hydroxy-2-phenyl-1,3,4,5-tetrahydrobenz[cd]indole], the inhibition at 0.3 µg/mL worked out at 64%.

Consider `Cc1ccc(-c2[nH]c3cccc4c3c2CCC4N)cc1` (stereo not shown) [Example 99, 5-amino-2-(4-methylphenyl)-1,3,4,5-tetrahydrobenz[cd]indole], for which the inhibition at 0.3 µg/mL is 59%.

Consider `NC1CCc2c(-c3ccccc3O)[nH]c3cccc1c23` (stereo not shown) [Example 185, 5-amino-2-(2-hydroxyphenyl)-1,3,4,5-tetrahydrobenz[cd]indole], for which the inhibition at 0.3 µg/mL was 100%.

Still in this test, the particulars now being: Rattus norvegicus, Neuron, 72 h; 1.0 μg/ml; serum-free, 3 days; read-out: Suppression of Naturally Occurring Neuronal Death.
In the case of `OC1CCN(C2CCc3c(-c4ccccc4)[nH]c4cccc2c34)CC1` (stereo not shown) [Example 216, 5-(4-hydroxypiperidino)-2-phenyl-1,3,4,5-tetrahydrobenz[cd]indole], the inhibition at 1 µg/mL was found to be 75%.

On to `NC1CCc2c(-c3ccc(Cl)cc3)[nH]c3cccc1c23` (stereo not shown) [Example 96, 5-amino-2-(4-chlorophenyl)-1,3,4,5-tetrahydrobenz[cd]indole], for which the inhibition at 1 µg/mL came to 37%.

`c1ccc(-c2[nH]c3cccc4c3c2CCC4N2CCOCC2)cc1` (stereo not shown) [Example 148, 5-morpholino-2-phenyl-1,3,4,5-tetrahydrobenz[cd]indole]: the inhibition at 1 µg/mL is 65%.

For the molecule `c1ccc(CNC2CCc3c(-c4ccccc4)[nH]c4cccc2c34)cc1` (stereo not shown) [Example 153, 5-(N-benzylamino)-2-phenyl-1,3,4,5-tetrahydrobenz[cd]indole], the inhibition at 1 µg/mL is 100%.

As for `CNC1CCc2c(-c3ccccc3)[nH]c3cccc1c23` (stereo not shown) [Example 130, 5-(N-methylamino)-2-phenyl-1,3,4,5-tetrahydrobenz[cd]indole], the inhibition at 1 µg/mL was determined as 76%.

The test is the same for the next values; noted with them: Rattus norvegicus, Neuron, 72 h; 3.0 μg/ml; serum-free, 3 days; read-out: Suppression of Naturally Occurring Neuronal Death.
For `CCOC(=O)CNC1CCc2c(-c3ccccc3)n(C)c3cccc1c23` (stereo not shown) [Example 244, 5-[N-(ethoxycarbonylmethyl)]amino-1-methyl-2-phenyl-1,3,4,5-tetrahydrobenz[cd]indole hydrochloride], the inhibition at 3 µg/mL amounted to 57%.

For the molecule `NC1CCc2c(-c3ccccc3)[nH]c3ccc(Br)c1c23` (stereo not shown) [Example 87, 5-amino-6-bromo-2-phenyl-1,3,4,5-tetrahydrobenz[cd]indole], the inhibition at 3 µg/mL was found to be 84%.

Take `CN(C)C1CCc2c(-c3ccccc3)[nH]c3cccc1c23` (stereo not shown) [Example 121, 5-(N,N-dimethylamino)2-phenyl-1,3,4,5-tetrahydrobenz[cd]indole]: the inhibition at 3 µg/mL was 72%.

Regarding `CC(=O)NC1CCc2c(-c3ccccc3)[nH]c3cccc1c23` (stereo not shown) [Example 124, 5-(N-acetylamino)-2-phenyl-1,3,4,5-tetrahydrobenz[cd]indole], the inhibition at 3 µg/mL amounted to 23%.

Turning to `c1ccc(-c2[nH]c3cccc4c3c2CCC4N2CCCCC2)cc1` (stereo not shown) [Example 151, 2-phenyl-5-piperidino-1,3,4,5-tetrahydrobenz[cd]indole], the inhibition at 3 µg/mL worked out at 98%.

As to `Cn1c(-c2ccccc2)c2c3c(cccc31)C(NCC(=O)O)CC2` (stereo not shown) [Example 223, 5-[N-(carboxymethyl)]amino-1-methyl-2-phenyl-1,3,4,5-tetrahydrobenz[cd]indole hydrochloride], the inhibition at 3 µg/mL stood at 81%.

The same test, now with this note: serum-free condition.
Turning to `O=C(O)C1=CC(=C(c2ccc(O)c(C(=O)O)c2)c2ccc(O)c(C(=O)O)c2)C=CC1=O` [aurin tricarboxylic acid, reference compound], the “suppression of death of neurons under the serum-free condition (in words)” value is given as “suppressed”.

As to `Cc1c2oc3c(C)ccc(C(=O)N[C@@H]4C(=O)N[C@H](C(C)C)C(=O)N5CCC[C@H]5C(=O)N(C)CC(=O)N(C)[C@@H](C(C)C)C(=O)O[C@@H]4C)c3nc-2c(C(=O)N[C@@H]2C(=O)N[C@H](C(C)C)C(=O)N3CCC[C@H]3C(=O)N(C)CC(=O)N(C)[C@@H](C(C)C)C(=O)O[C@@H]2C)c(N)c1=O` [actinomycin D, reference compound] (I: T[dV]P[Sar][NMeV] / II: T[dV]P[Sar][NMeV]; ester I:1-I:C, II:1-II:C; linker I:N-II:N via Actinocin(9to1)), the “suppression of death of neurons under the serum-free condition (in words)” value is given as “suppressed”.

On to `C[C@@H]1C[C@@H]([C@H](O)CC2CC(=O)NC(=O)C2)C(=O)[C@@H](C)C1` [cycloheximide, reference compound], for which the “suppression of death of neurons under the serum-free condition (in words)” value is “suppressed”.

Another test has as its system pyramidal cells in the hippocampus CA1 region. Description: Effectiveness in gerbil model of delayed neuronal death (damage score, 4 min ischemia). The class given is in vivo. The settings on record: 2 mg/kg, carotid arteries 5 min before ischemia; score 0-4; ischemic control 2.9 ± 0.3; mean ± standard error (Table 3-1). The protocol:
Specifically, the cervical part of a gerbil under anesthesia by halothane inhalation was incised along the median line to expose the carotid artery on both sides, which were occuluded with clips for 4 min and thereafter brought back to patency. After suturing the incised part, the anesthetization was turned off and the animal was brought back to keeping under normal condition. Three days after loading of cerebral ischemia, the gerbil was anesthetized by administering pentobarbital, fixed by transcardiac formalin perfusion and had the brain isolated. A coronary slice including the fimbria hippocampi was prepared from the isolated brain and stained with Cresyl Violet. The pyramidal cells in the hippocampus CA1 region were examined under an optical microscope and the degree of damage was rated by the following scores: 0, no damage; 1, slight damage; 2, moderate damage; 3, significant damage; 4, total damage. Each test compound was administered through the carotid arteries 5 min before ischemia.
Regarding `NC1CCc2c(-c3ccccc3)[nH]c3ccc(Br)c1c23` (stereo not shown) [Example 87, 5-amino-6-bromo-2-phenyl-1,3,4,5-tetrahydrobenz[cd]indole], the “Score of damage to hippocampus CA1” value is given as 1.9 ± 0.6.

The test is the same for the next values; noted with them: 5 mg/kg, carotid arteries 5 min before ischemia; score 0-4; ischemic control 2.9 ± 0.3; mean ± standard error (Table 3-1).
Regarding `CNC1CCc2c(-c3ccccc3)[nH]c3cccc1c23` (stereo not shown) [Example 130, 5-(N-methylamino)-2-phenyl-1,3,4,5-tetrahydrobenz[cd]indole], the “Score of damage to hippocampus CA1” value is given as 1.9 ± 0.1.

Still in this test, the particulars now being: 10 mg/kg, carotid arteries 5 min before ischemia; score 0-4; ischemic control 3.5 ± 0.4; mean ± standard error (Table 3-2).
Regarding `Cl.Cn1c(-c2ccccc2F)c2c3c(cccc31)C(N1CCOCC1)CC2` (stereo not shown) [Example 240, 2-(2-fluorophenyl)-1-methyl-5-morpholino-1,3,4,5-tetrahydrobenz[cd]indole hydrochloride], the “Score of damage to hippocampus CA1” value turned out to be 2.1 ± 0.5.

The test system of a further test is neurons isolated from the cerebrum. Description: Veratrine-induced neuronal death suppressing action (MTT). It counts as cell-based, embryonic day 16 rats. The settings on record: Rattus norvegicus, Neuron; veratrine 0.35 mM; MTT after 24 h; probit method; read-out: IC50 (50% suppression of veratrine-induced neuronal death). As to the method: The action of compounds to suppress the death of neurons induced by veratrine was evaluated in terms of their effectiveness in suppressing the neuronal death as induced by direct addition of veratrine. An experiment was run by a method adapted from the method of Powells et al., J. Pharmacol. Exp. Therapeutics, 255, 1117, 1987. Specifically, neurons were isolated from the cerebrum of embryonic day 16 rats in the usual manner, suspended in a MEM medium containing 10% fetal bovine serum, seeded onto a polylysine-coated culture plate at a density of 2.5×10^5 cells per square centimeter and cultivated at 37° C. in 95% air+5% CO2. Starting on the fifth day of cultivation, treatment was conducted with 10 μM of cytosine arabinoside for 2 days and the cultivation was continued until the 12th day, when a test was run as follows. The cells were treated with a buffer solution containing veratrine (0.35 mM) and a test compound, replaced in a serum-containing medium and cultivated for another 24 h. Subsequently, the number of viable cells was determined by calorimetric quantification using 3-(4,5-dimethylthiazol-2-yl)-2,5-diphenyltetrazolium bromide (MTT). The percent suppression of neuronal death by the test compound was determined by the following formula:
as §1
where ODtest is the number of cells (absorbance) in the group of addition of veratrine+test compound, ODcontrol is the number of cells (absorbance) in a control group of addition of veratrine, and ODnormal is the number of cells (absorbance) in a control (normal) group without addition of veratrine.
In addition, IC50 values indicating the effectiveness in achieving 50% suppression of neuronal death were calculated by the probit method on the basis of the result from more than one concentration.
Take `NC1CCc2c(-c3ccc(F)cc3)[nH]c3cccc1c23` (stereo not shown) [Example 95, 5-amino-2-(4-fluorophenyl)-1,3,4,5-tetrahydrobenz[cd]indole]: the IC50 is 3.1 mg/L (≈ 11.6 µM).

Regarding `NC1CCc2c(-c3ccccc3)[nH]c3ccc([N+](=O)[O-])c1c23` (stereo not shown) [Example 90, 5-amino-6-nitro-2-phenyl-1,3,4,5-tetrahydrobenz[cd]indole], the IC50 is 0.7 mg/L (≈ 2.39 µM).

`COc1ccccc1-c1[nH]c2cccc3c2c1CCC3N` (stereo not shown) [Example 184, 5-amino-2-(2-methoxyphenyl)-1,3,4,5-tetrahydrobenz[cd]indole]: the IC50 was 0.8 mg/L (≈ 2.87 µM).

Consider `NC1CCc2c(-c3ccccc3)[nH]c3ccc(O)c1c23` (stereo not shown) [Example 174, 5-amino-6-hydroxy-2-phenyl-1,3,4,5-tetrahydrobenz[cd]indole], for which the concentration for half-maximal inhibition (IC50) stood at 3.4 mg/L (≈ 12.9 µM).

Regarding `CCCN(CCC)C1CCc2c(-c3ccccc3)[nH]c3cccc1c23` (stereo not shown) [Example 150, 5-(N,N-dipropylamino)-2-phenyl-1,3,4,5-tetrahydrobenz[cd]indole], the IC50 is 1.2 mg/L (≈ 3.61 µM).

`COC(=O)c1ccc(-c2[nH]c3c(Cl)ccc4c3c2CCC4N)cc1` (stereo not shown) [Example 171, 5-amino-8-chloro-2-(4-methoxycarbonylphenyl)-1,3,4,5-tetrahydrobenz[cd]indole]: the IC50 turned out to be 1.9 mg/L (≈ 5.57 µM).

For `COC(=O)C1CCN(C2CCc3c(-c4ccccc4)[nH]c4cccc2c34)CC1.Cl` (stereo not shown) [Example 225, 5-(4-methoxycarbonylpiperidino)-2-phenyl-1,3,4,5-tetrahydrobenz[cd]indole hydrochloride], the IC50 was 2.2 mg/L.

`Cl.Cn1c(-c2ccccc2Cl)c2c3c(cccc31)C(N1CCOCC1)CC2` (stereo not shown) [Example 239, 2-(2-chlorophenyl)-1-methyl-5-morpholino-1,3,4,5-tetrahydrobenz[cd]indole hydrochloride]: the IC50 is 2.2 mg/L.

For the molecule `COc1ccc2[nH]c(-c3ccccc3)c3c2c1C(N)CC3` (stereo not shown) [Example 110, 5-amino-6-methoxy-2-phenyl-1,3,4,5-tetrahydrobenz[cd]indole], the IC50 came to 1.8 mg/L (≈ 6.47 µM).

For the molecule `Cc1cc2c3c(c(-c4ccccc4)[nH]c3c1)CCC2N` (stereo not shown) [Example 113, 5-amino-7-methyl-2-phenyl-1,3,4,5-tetrahydrobenz[cd]indole], the IC50 was determined as 0.7 mg/L (≈ 2.67 µM).
